Test results from ChEMBL document CHEMBL1127030, “3-Tetrahydrofuran and pyran urethanes as high-affinity P2-ligands for HIV-1 protease inhibitors” (J Med Chem, 1993).

Key:
[1] = biological target: Human immunodeficiency virus type 1 protease (Human immunodeficiency virus 1, UniProt Q72874); assay: Inhibition of HIV-1 protease
[2] = system: Human immunodeficiency virus 1; assay: Inhibitory concentration was evaluated to inhibit 95% of HIV-1 spread in MT4 cells

IC50 [1] | SMILES | IC95 [2]
314 nM | CC(C)(C)NC(=O)[C@@H]1C[C@@H]2CCCC[C@@H]2CN1C[C@@H](O)[C@H](Cc1ccccc1)NC(=O)O[C@H]1C=CCOC1 | –
< 0.03 nM | O=C(N[C@@H](Cc1ccccc1)[C@@H](O)C[C@@H](Cc1ccccc1)C(=O)N[C@H]1c2ccccc2C[C@H]1O)O[C@H]1CCOC1 | 3 nM
> 3000 nM | CC(C)(C)NC(=O)[C@@H]1C[C@@H]2CCCC[C@@H]2CN1C[C@@H](O)[C@H](Cc1ccccc1)NC(=O)OC(C)(C)C | –
392 nM | CC(C)(C)NC(=O)[C@@H]1C[C@@H]2CCCC[C@@H]2CN1C[C@@H](O)[C@H](Cc1ccccc1)NC(=O)O[C@H]1CCCOC1 | –
48.9 nM | CC(C)(C)NC(=O)[C@@H]1C[C@@H]2CCCC[C@@H]2CN1C[C@@H](O)[C@H](Cc1ccccc1)NC(=O)O[C@@H]1C=CCOC1 | –
< 0.03 nM | O=C(N[C@@H](Cc1ccccc1)[C@@H](O)C[C@@H](Cc1ccccc1)C(=O)N[C@H]1c2ccccc2C[C@H]1O)O[C@@H]1CCCOC1 | 25 nM
308 nM | CC(C)(C)NC(=O)[C@@H]1C[C@@H]2CCCC[C@@H]2CN1C[C@@H](O)[C@H](Cc1ccccc1)NC(=O)O[C@@H]1CCCOC1 | –
< 0.03 nM | O=C(N[C@@H](Cc1ccccc1)[C@@H](O)C[C@@H](Cc1ccccc1)C(=O)N[C@H]1c2ccccc2C[C@H]1O)O[C@H]1CCCOC1 | 50 nM
– | CC(C)(C)OC(=O)N[C@@H](Cc1ccccc1)[C@@H](O)C[C@@H](Cc1ccccc1)C(=O)N[C@H]1c2ccccc2C[C@H]1O | 400 nM

SMILES | IC50 [1] | IC95 [2]
O=C(N[C@@H](Cc1ccccc1)[C@@H](O)C[C@@H](Cc1ccccc1)C(=O)N[C@H]1c2ccccc2C[C@H]1O)OC1CCOCC1 | 1.22 nM | –
O=C(N[C@@H](Cc1ccccc1)[C@@H](O)C[C@@H](Cc1ccccc1)C(=O)N[C@H]1c2ccccc2C[C@H]1O)O[C@@H]1CCOC1 | 0.03 nM | 100 nM
O=C(N[C@@H](Cc1ccccc1)[C@@H](O)C[C@@H](Cc1ccccc1)C(=O)N[C@H]1c2ccccc2C[C@H]1O)OC1CCCC1 | 0.33 nM | 400 nM
